Measured values: patent US10730863B2, “Bridged bicyclic compounds as farnesoid X receptor modulators” (BRISTOL-MYERS SQUIBB COMPANY, priority 2017, dated 2020)

Target: FXR (Homo sapiens (Human), UniProt Q96RI1)
Experiment: FXR EC50 (FXR agonist activity reported with each example)
Type: cell-based

Sequence of FXR (Q96RI1 262-486): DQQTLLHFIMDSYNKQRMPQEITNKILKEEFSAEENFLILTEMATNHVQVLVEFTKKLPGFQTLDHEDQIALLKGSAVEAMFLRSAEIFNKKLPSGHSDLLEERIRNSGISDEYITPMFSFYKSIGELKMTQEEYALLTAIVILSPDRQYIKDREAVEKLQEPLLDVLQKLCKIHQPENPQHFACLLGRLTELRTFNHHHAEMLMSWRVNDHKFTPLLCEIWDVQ

Compound | EC50 [nM]
CC(C)Oc1cc(C(=O)O)nc2ccc(OCC34CCC(/C=C/c5c(-c6c(Cl)cncc6Cl)noc5C5CC5)(CC3)CO4)cc12 [Example 501, (E)-6-((4-(2-(5-cyclopropyl-3-(3,5-dichloropyridin-4-yl)isoxazol-4-yl)vinyl)-2-oxabicyclo[2.2.2]octan-1-yl)methoxy)-4-isopropoxyquinoline-2-carboxylic acid] | 54
O=C(O)c1cccc2nc(C34CCC(/C=C\c5c(-c6c(Cl)cccc6Cl)noc5C5CC5)(CC3)CC4)sc12 [Example 502, (Z)-2-(4-(2-(5-cyclopropyl-3-(2,6-dichlorophenyl)isoxazol-4-yl)vinyl)bicyclo[2.2.2]octan-1-yl)benzo[d]thiazole-7-carboxylic acid] | 1500
O=C(O)c1cccc2nc(C34CCC(/C=C/c5c(-c6c(Cl)cncc6Cl)noc5C5CC5)(CC3)CC4)sc12 [Example 503, (E)-2-(4-(2-(5-cyclopropyl-3-(3,5-dichloropyridin-4-yl)isoxazol-4-yl)vinyl)bicyclo[2.2.2]octan-1-yl)benzo[d]thiazole-7-carboxylic acid] | 31
O=C(O)c1cccc(-c2noc(C34CCC(/C=C/c5c(-c6c(Cl)cncc6Cl)noc5C5CC5)(CC3)CC4)n2)c1 [Example 504, (E)-3-(5-(4-(2-(5-cyclopropyl-3-(3,5-dichloropyridin-4-yl)isoxazol-4-yl)vinyl)bicyclo[2.2.2]octan-1-yl)-1,2,4-oxadiazol-3-yl)benzoic acid] | 33
O=C(O)c1ccc2nc(C34CCC(/C=C/c5c(-c6c(Cl)cncc6Cl)noc5C5CC5)(CC3)CC4)sc2c1 [Example 505, (E)-2-(4-(2-(5-cyclopropyl-3-(3,5-dichloropyridin-4-yl)isoxazol-4-yl)vinyl)bicyclo[2.2.2]octan-1-yl)benzo[d]thiazole-6-carboxylic acid] | 88
O=C(O)c1cc(OCC23CCC(/C=C/c4c(-c5c(Cl)cncc5Cl)noc4C4CC4)(CC2)CC3)cc(C(F)(F)F)c1 [Example 506, (E)-3-((4-(2-(5-cyclopropyl-3-(3,5-dichloropyridin-4-yl)isoxazol-4-yl)vinyl)bicyclo[2.2.2]octan-1-yl)methoxy)-5-(trifluoromethyl)benzoic acid] | 6
O=C(O)c1cc(C(F)(F)F)cc2nc(C34CCC(/C=C/c5c(-c6c(Cl)cncc6Cl)noc5C5CC5)(CC3)CC4)sc12 [Example 507, (E)-2-(4-(2-(5-cyclopropyl-3-(3,5-dichloropyridin-4-yl)isoxazol-4-yl)vinyl)bicyclo[2.2.2]octan-1-yl)-5-(trifluoromethyl)benzo[d]thiazole-7-carboxylic acid] | 20
COc1cc(C(=O)O)nc2ccc(OCC34CCC(/C=C/c5c(-c6c(Cl)cncc6Cl)noc5C5CC5)(CC3)CC4)cc12 [Example 508, (E)-6-((4-(2-(5-cyclopropyl-3-(3,5-dichloropyridin-4-yl)isoxazol-4-yl)vinyl)bicyclo[2.2.2]octan-1-yl)methoxy)-4-methoxyquinoline-2-carboxylic acid] | 100
Cc1nc(C23CCC(/C=C/c4c(-c5c(Cl)cncc5Cl)noc4C4CC4)(CC2)CC3)sc1C(=O)O [Example 509, (E)-2-(4-(2-(5-cyclopropyl-3-(3,5-dichloropyridin-4-yl)isoxazol-4-yl)vinyl)bicyclo[2.2.2]octan-1-yl)-4-methylthiazole-5-carboxylic acid] | 40
O=C(O)c1csc(C23CCC(/C=C/c4c(-c5c(Cl)cncc5Cl)noc4C4CC4)(CC2)CC3)n1 [Example 510, (E)-2-(4-(2-(5-cyclopropyl-3-(3,5-dichloropyridin-4-yl)isoxazol-4-yl)vinyl)bicyclo[2.2.2]octan-1-yl)thiazole-4-carboxylic acid] | 410
O=C(O)c1cccc(C23CCC(COCc4c(-c5c(Cl)cncc5Cl)noc4C4CC4)(CC2)CO3)c1 [Example 511, 3-(4-(((5-cyclopropyl-3-(3,5-dichloropyridin-4-yl)isoxazol-4-yl)methoxy)methyl)-2-oxabicyclo[2.2.2]octan-1-yl)benzoic acid] | 2900
O=C(O)c1c(F)ccc2nc(C34CCC(OCc5c(-c6c(Cl)cncc6Cl)noc5C5CC5)(CC3)CC4)sc12 [Example 512, 2-(4-((5-cyclopropyl-3-(3,5-dichloropyridin-4-yl)isoxazol-4-yl)methoxy)bicyclo[2.2.2]octan-1-yl)-6-fluorobenzo[d]thiazole-7-carboxylic acid] | 43
O=C(O)c1cccc(-c2noc(C34C5C6C3C3C4C5C63COCc3c(-c4c(Cl)cccc4Cl)noc3C3CC3)n2)c1 (stereo not shown) [Example 513, 3-(5-(4-(((5-cyclopropyl-3-(2,6-dichlorophenyl)isoxazol-4-yl)methoxy)methyl)cuban-1-yl)-1,2,4-oxadiazol-3-yl)benzoic acid] | 960
O=C(O)c1cccc(-c2noc(C34CC(COCc5c(-c6c(Cl)cccc6Cl)noc5C5CC5)(C3)C4)n2)c1 [Example 514, 3-(5-(3-(((5-cyclopropyl-3-(2,6-dichlorophenyl)isoxazol-4-yl)methoxy)methyl)bicyclo[1.1.1]pentan-1-yl)-1,2,4-oxadiazol-3-yl)benzoic acid] | 1700
O=C(O)c1ccc2cc(CCC34CCC(OCc5c(-c6c(Cl)cncc6Cl)noc5C5CC5)(CC3)CC4)ccc2n1 [Example 515, 6-(2-(4-((5-cyclopropyl-3-(3,5-dichloropyridin-4-yl)isoxazol-4-yl)methoxy)bicyclo[2.2.2]octan-1-yl)ethyl)quinoline-2-carboxylicacid] | 87
O=C(O)Cc1ccc(/C=C/C23CCC(OCc4c(-c5c(Cl)cncc5Cl)noc4C4CC4)(CC2)CC3)cc1 [Example 516, (E)-2-(4-(2-(4-((5-cyclopropyl-3-(3,5-dichloropyridin-4-yl)isoxazol-4-yl)methoxy)bicyclo[2.2.2]octan-1-yl)vinyl)phenyl)acetic acid] | 173
COc1nc(C(=O)O)cc2ccc(/C=C/C34CCC(OCc5c(-c6c(Cl)cncc6Cl)noc5C5CC5)(CC3)CC4)cc12 [Example 517, (E)-7-(2-(4-((5-cyclopropyl-3-(3,5-dichloropyridin-4-yl)isoxazol-4-yl)methoxy)bicyclo[2.2.2]octan-1-yl)vinyl)-1-methoxyisoquinoline-3-carboxylic acid] | 42
CC(C)Oc1nc(C(=O)O)cc2ccc(/C=C/C34CCC(OCc5c(-c6c(Cl)cncc6Cl)noc5C5CC5)(CC3)CC4)cc12 [Example 518, (E)-7-(2-(4-((5-cyclopropyl-3-(3,5-dichloropyridin-4-yl)isoxazol-4-yl)methoxy)bicyclo[2.2.2]octan-1-yl)vinyl)-1-isopropoxyisoquinoline-3-carboxylic acid] | 62
O=C(O)c1cc(F)cn2c(C#CC34CCC(OCc5c(-c6c(Cl)cncc6Cl)noc5C5CC5)(CC3)CC4)cnc12 [Example 520, 3-((4-((5-cyclopropyl-3-(3,5-dichloropyridin-4-yl)isoxazol-4-yl)methoxy)bicyclo[2.2.2]octan-1-yl)ethynyl)-6-fluoroimidazo[1,2-a]pyridine-8-carboxylic acid] | 4
COc1nc(C(=O)O)cc2ccc(C#CC34CCC(OCc5c(-c6c(Cl)cncc6Cl)noc5C5CC5)(CC3)CC4)cc12 [Example 521, 7-((4-((5-cyclopropyl-3-(3,5-dichloropyridin-4-yl)isoxazol-4-yl)methoxy)bicyclo[2.2.2]octan-1-yl)ethynyl)-1-methoxyisoquinoline-3-carboxylic acid] | 40
COc1cc(C(=O)N(C)C)nc2ccc(C#CC34CCC(OCc5c(-c6c(Cl)cncc6Cl)noc5C5CC5)(CC3)CC4)cc12 [Example 522, 6-((4-((5-cyclopropyl-3-(3,5-dichloropyridin-4-yl)isoxazol-4-yl)methoxy)bicyclo[2.2.2]octan-1-yl)ethynyl)-4-methoxy-N,N-dimethylquinoline-2-carboxamide] | 52
O=C(O)c1cnc(N2CC(F)C2)c(C#CC23CCC(OCc4c(-c5c(Cl)cncc5Cl)noc4C4CC4)(CC2)CC3)c1 [Example 523, 5-((4-((5-cyclopropyl-3-(3,5-dichloropyridin-4-yl)isoxazol-4-yl)methoxy)bicyclo[2.2.2]octan-1-yl)ethynyl)-6-(3-fluoroazetidin-1-yl)nicotinic acid] | 24
N#CC12CCC(OCc3c(-c4c(Cl)cccc4Cl)noc3C3CC3)(CC1)CC2 [Intermediate 70A, 4-((5-Cyclopropyl-3-(2,6-dichlorophenyl)isoxazol-4-yl)methoxy)bicyclo[2.2.2]octane-1-carbonitrile] | 470
COC(=O)c1cccc(-c2noc(C34CCC(C=Cc5c(-c6c(Cl)cccc6Cl)noc5C5CC5)(CC3)CC4)n2)c1 [Intermediate 159F, methyl 3-(5-(4-(2-(5-cyclopropyl-3-(2,6-dichlorophenyl)isoxazol-4-yl)vinyl)bicyclo[2.2.2]octan-1-yl)-1,2,4-oxadiazol-3-yl)benzoate] | 4600
NC(=O)C12CCC(COCc3c(-c4c(Cl)cccc4Cl)noc3C3CC3)(CC1)CC2 [Intermediate 162C, 4-(((5-cyclopropyl-3-(2,6-dichlorophenyl)isoxazol-4-yl)methoxy)methyl)bicyclo[2.2.2]octane-1-carboxamide] | 180
COC(=O)c1ccc(NC(=S)C23CCC(COCc4c(-c5c(Cl)cccc5Cl)noc4C4CC4)(CC2)CC3)c(Cl)c1 [Intermediate 168A, methyl 3-chloro-4-(4-(((5-cyclopropyl-3-(2,6-dichlorophenyl)isoxazol-4-yl)methoxy)methyl)bicyclo[2.2.2]octane-1-carbothioamido)benzoate] | 4380
COC(=O)c1ccc(NC(=O)C23CCC(COCc4c(-c5c(Cl)cccc5Cl)noc4C4CC4)(CC2)CC3)c(Cl)c1 [Intermediate 170A, methyl 3-chloro-4-(4-(((5-cyclopropyl-3-(2,6-dichlorophenyl)isoxazol-4-yl)methoxy)methyl)bicyclo[2.2.2]octane-1-carboxamido)benzoate] | 2400
COC(=O)c1ccc(C23CCC(CNc4c(-c5c(Cl)cccc5Cl)noc4C4CC4)(CC2)CO3)cc1 [Intermediate 203A, methyl 4-(4-(((5-cyclopropyl-3-(2,6-dichlorophenyl)isoxazol-4-yl)amino)methyl)-2-oxabicyclo[2.2.2]octan-1-yl)benzoate] | 2800
